In publication PMC12234328, “A naphthalimide derivative exerts potent antiplatelet and antithrombotic activities without a bleeding tendency” (Frontiers in Pharmacology, 2025):

Experiments:
[1] = system: human platelet suspensions stimulated with convulxin; assay: Convulxin-induced platelet aggregation; assay type: cell-based; settings: 10–50 μM, convulxin 4 ng/mL
Source text: (§1) This study received approval from the Taipei Medical University–Joint Institutional Review Board (TMU-JIRB-No. N202003148) and adhered to the principles of the Declaration of Helsinki. Informed consent was obtained from all volunteers before their participation. Human platelets were washed and prepared according to previously established methods ([Lu et al., 2019]). Whole blood was collected from healthy participants who had not taken any medications, including nonsteroidal anti-inflammatory drugs or aspirin, in the preceding 2 weeks. The blood was drawn into polypropylene tubes containing an acid citrate–dextrose solution (9:1, v/v). After mixing, the samples were centrifuged at 120 g for 10 min. The upper layer of platelet-rich plasma was collected and supplemented with prostaglandin E1 and heparin. Following further centrifugation at 500 g for 10 min, the platelet pellets were washed twice. The platelets were then resuspended in Tyrode’s solution containing 3.5 mg/mL bovine serum albumin (B.S.A.) to create platelet suspensions. The final Ca^2+ concentration of the platelet suspensions (3.6 × 10^8 cells/mL) was 1 mM.
(§2) Platelet aggregation was measured using a lumi-aggregometer (Payton, Scarborough, Canada) through the turbidimetric method ([Lu et al., 2019]). […] Subsequently, various agonists were added and platelet aggregation was then recorded for an additional 6 min. […]

[2] = system: thrombus formation in mesenteric venules; assay: Fluorescein sodium-mediated thrombus formation in mesenteric microvessels of mice; assay type: in vivo; settings: n = 6, mean ± SEM (DMSO 117.7 ± 12.4 s)
Method: Male ICR mice (weighing 20–25 g and aged 5–6 weeks) were purchased from BioLasco (Taipei, Taiwan). The animal use protocol for this project was approved by the Affidavit of Approval of Animal Use Protocol–Taipei Medical University (LAC-2020–0074). All animal experiments were conducted in accordance with the Guide for the Care and Use of Laboratory Animals, Eighth Edition (2011).
The mice were anesthetized with an oxygen–air mixture containing 3% isoflurane at a gas flow rate of 1.5–2 L/min. A bolus dose (bolus volume: 20 μL) of compound 6 (0.3 mg/kg, 0.6 mg/kg, or 1.2 mg/kg), DMSO (solvent control; 1.1 g/kg), or aspirin (20 mg/kg; positive control) was intravenously administered through the tail vein before the administering sodium fluorescein (15 mg/kg). The small intestinal segments were placed on a transparent culture dish, and the mesenteric vessels were observed under a microscope. Venules (20–30 μm) were selected and irradiated with light (wavelength <520 nm) to induce endothelial damage, causing thrombus formation and subsequent vessel occlusion. The time required to occlude a microvessel was recorded ([Lin et al., 2013]). A formula for dose translation based on the […] was used to calculate the appropriate dose for use in the mice ([Reagan-Shaw et al., 2008]). [Reagan-Shaw et al. (2008)] reported that the animal dose should not be extrapolated to a human equivalent dose (HED) by a simple conversion based on body weight. […] The formula for dose translation based on BSA is as follows: HED (mg/kg) = Animal dose (mg/kg) multiply by Animal Km/Human Km. Mouse Km is 3 and Human Km is 37.
FIGURE 3 Effects of compound 6 on thrombosis and hemostasis in mice. Mice were treated with compound 6 (0.3, 0.6, or 1.2 mg/kg), DMSO (solvent control), or aspirin (20 mg/kg; positive control) via intravenous route for 10 min. (A) The microthrombus formation (arrows) in mesenteric venules. Scale bar = 30 μm. […] Each point on the plot indicates a mouse (n = 6). Data (A,B) are presented as means ± SEM (n = 6). *p < 0.05 and ***p < 0.001 compared with the DMSO group.

[3] = system: human platelet suspensions stimulated with thrombin; assay: Thrombin-induced platelet aggregation; assay type: cell-based; settings: 5–50 μM, 0.02 U/mL thrombin
Source text: as §1, §2

[4] = system: FeCl3-induced thrombosis in mesenteric artery; assay: FeCl3-induced mesenteric artery thrombosis in mice; assay type: in vivo; settings: 1.2 mg/kg i.v., 30% FeCl3, relative to DMSO group
Method: Mice were anesthetized with an oxygen–air mixture containing 3% isoflurane at a gas flow rate of 1.5–2 L/min. To label platelets, they were injected with the fluorescent dye rhodamine 6G (0.6 mg/kg). 10 min before FeCl3 treatment, mice were intravenously administered DMSO (1.1 g/kg, solvent control), compound 6 (1.2 mg/kg), or aspirin (20 mg/kg, positive control). The mesenteric arteries were surgically exposed and injured by applying a filter paper saturated with 30% FeCl3 for 5 min to induce thrombosis. Thrombus formation was then continuously monitored using a fluorescence microscope (Olympus, Tokyo, Japan).
FIGURE 4 Effects of compound 6 on collagen/epinephrine-induced pulmonary thrombosis and FeCl3-induced thrombosis in mesenteric artery. Mice were intravenously administered with DMSO (solvent control), compound 6 (1.2 mg/kg), or aspirin (20 mg/kg, positive control) for 10 min (A) Mice were injected with collagen/epinephrine to induce pulmonary embolism, which was detected through staining with Evans blue (left panel). The survival rate was recorded for 24 h (right panel). Data are presented as means ± SEM (n = 6). **p < 0.01 compared with the sham group. #p < 0.05 compared with the DMSO (solvent control) group. (B) FeCl3-induced thrombosis in mesenteric artery as observed under real-time fluorescent microscopy. […] Scale bar = 100 µm. […]

In the case of `CCCCN1C(=O)c2cccc3c(NCCNC(=O)C45CC6CC(CC(C6)C4)C5)ccc(c23)C1=O` [compound 6], the “Effect on convulxin-induced platelet aggregation” value [1] was “can inhibit convulxin-induced platelet aggregation”, the Occlusion time ([2]; 0.3 mg/kg i.v.) was 211.5 ± 15.8 s and the Occlusion time ([2]; 0.6 mg/kg i.v.) was 333.5 ± 45.6 s. For the same molecule, the Occlusion time ([2]; 1.2 mg/kg i.v.) was 451.5 ± 27.4 s, the “Effect on thrombin-induced platelet aggregation” value [3] was “did not significantly affect” and the “Platelet accumulation on the injured vessels (rhodamine 6G-labeled platelets)” value [4] was “delayed platelet accumulation”.
